Data: US4370336A, “3,5-Disubstituted-1H-1,2,4-triazole derivatives as antifertility agents” (priority 1981, dated 1983)
Read-outs that look alike come from different tables or passages of the source.

Tests used:
[1] = test system: female Syrian golden hamsters; assay: post-coital-post-implantation antifertility activity in hamsters, subcutaneous; type: in vivo, Syrian golden hamster; conditions: for ED50: Mesocricetus auratus, sc
Protocol: (§1) Representative experiments for assessing antifertility activity were carried out with female Syrian golden hamsters weighing 100 to 130 g. The animals were mated and the presence of sperm in the vagina was taken as evidence of mating. […] Pregnancy was later confirmed at the time of autopsy by presence of fetuses or implantation sites in the uterus. Even if an animal aborts the fetus, implantation scars still remain as evidence that the animal has been pregnant.
(§2) The animals were autopsied on day 14 of pregnancy and the uteri were examined for evidence of pregnancy (implantation sites, fetal resorptions or live fetuses), hemorrage, and evidence of abnormalities of the uterus, placenta or fetuses.

hamsters = assay: antifertility activity in hamsters by oral route; type: in vivo, hamster; conditions: Mesocricetus auratus; for ED50: po, absence of live fetuses in 50% of the animals; for inhibition in vivo at 10 mg/kg: oral dosage of 10 mg/kg, read-out: reduction of live fetuses
Protocol: as §1, §2
The experiments for assessing this property were carried out on hamsters following the same procedure as above, with the obvious exception that the compounds were administered orally instead of subcutaneously.

[2] = test system: female Sprague-Dawley rats; assay: anti-reproductive activity in rats, subcutaneous; type: in vivo, Sprague-Dawley rat; conditions: Rattus norvegicus, sc; for responders at 20 mg/kg: 384 h, 20 mg/kg s.c. for five days from day 6 of pregnancy, sesame oil, autopsy day 16, read-out: reduction of live fetuses (share of treated rats)
Protocol: as §1, §2
The same criteria and experimental conditions as above were also applied when the anti-reproductive activity of the compounds of the invention was investigated in other animal species such as, for instance, rats, dogs, monkeys and baboons. In representative experiments, female Sprague-Dawley rats weighing from 200 to 300 g. were treated subcutaneously with a dosage of 20 mg/kg of the compound to be tested, dissolved in sesame oil, for five consecutive days starting from day 6 of pregnancy.

[3] = hamsters, 100% activity (absence of live fetuses) in 50% of the animals, read-out: ED50

**Q.** Which ED50 [1, 3] does the source give for `CCOc1cccc(-c2n[nH]c(-c3ccccc3C)n2)c1` [Example 9, 3-(m-Ethoxyphenyl)-5-(o-tolyl)-1H-1,2,4-triazole] here?
**A.** The ED50 was 0.07 mg/kg.

**Q.** How did the ED50 [1, 3] turn out when `C=CCOc1cccc(-c2n[nH]c(-c3ccccc3CC)n2)c1` [Example 13, 3-(m-Allyloxyphenyl)-5-(o-ethylphenyl)-1H-1,2,4-triazole] was run?
**A.** Its ED50 is 0.1 mg/kg.

**Q.** How did the ED50 [1, 3] turn out when `COc1cccc(-c2n[nH]c(-c3ccc(OC)cc3C)n2)c1` [Example 34, 5-(4-Methoxy-2-methylphenyl)-3-(m-methoxyphenyl)-1H-1,2,4-triazole] was run?
**A.** The ED50 was 0.2 mg/kg.

**Q.** For `CCOc1cccc(-c2n[nH]c(-c3ccccc3CC)n2)c1` [Example 35, 3-(m-Ethoxyphenyl)-5-(o-ethylphenyl)-1H-1,2,4-triazole], which ED50 (hamsters) is on record?
**A.** Its ED50 is 3 mg/kg.

**Q.** What about the ED50 [1, 3] of the same compound?
**A.** Its ED50 is 0.04 mg/kg.

**Q.** Which results are given for `c1ccc(-c2n[nH]c(-c3ccccc3)n2)cc1` [3,5-diphenyl-1H-1,2,4-triazole, reference compound]?
**A.** ED50 [1]: 6 mg/kg; antifertility activity relative to the compounds of the invention ([1]; hamsters, 10 mg/kg s.c. daily for 5 days (days 4-8 of pregnancy), comparison): much less active

**Q.** With `COc1cccc(-c2n[nH]c(-c3ccc(C)cc3C)n2)c1` [Example 26, 5-(2,4-Dimethylphenyl)-3-(m-methoxyphenyl)-1H-1,2,4-triazole] as the compound, how does the responders at 20 mg/kg [2] read?
**A.** Its responders at 20 mg/kg is at least 60%.

**Q.** What about the inhibition in vivo at 10 mg/kg (hamsters) of the same compound?
**A.** Its inhibition in vivo at 10 mg/kg is about 60%.

**Q.** And the ED50 [1, 3]?
**A.** The ED50 was 0.04 mg/kg.

**Q.** For `COc1cccc(-c2n[nH]c(-c3ccc(Cl)cc3C)n2)c1` [Example 30, 5-(4-Chloro-2-methylphenyl)-3-(m-methoxyphenyl)-1H-1,2,4-triazole], which responders at 20 mg/kg [2] is on record?
**A.** The responders at 20 mg/kg was at least 60%.

**Q.** And the inhibition in vivo at 10 mg/kg (hamsters)?
**A.** Its inhibition in vivo at 10 mg/kg is about 60%.

**Q.** What about the ED50 (hamsters) of the same compound?
**A.** The ED50 was 5 mg/kg.

**Q.** What about the ED50 [1, 3] of the same compound?
**A.** The ED50 was 0.04 mg/kg.

**Q.** Which responders at 20 mg/kg [2] does the source give for `Cc1ccc(-c2nc(-c3ccccc3)n[nH]2)c(C)c1` [Example 25, 5-(2,4-Dimethylphenyl)-3-phenyl-1H-1,2,4-triazole] here?
**A.** The responders at 20 mg/kg was at least 60%.

**Q.** What about the inhibition in vivo at 10 mg/kg (hamsters) of the same compound?
**A.** Its inhibition in vivo at 10 mg/kg is about 60%.

**Q.** What about the ED50 [1, 3] of the same compound?
**A.** The ED50 was 0.2 mg/kg.

**Q.** Which results are given for `COc1cccc(-c2n[nH]c(-c3cc(Cl)ccc3C)n2)c1` [Example 32, 5-(5-Chloro-2-methylphenyl)-3-(m-methoxyphenyl)-1H-1,2,4-triazole]?
**A.** responders at 20 mg/kg [2]: ≥ 60%; inhibition in vivo at 10 mg/kg (hamsters): ~60%; ED50 [1, 3]: 0.35 mg/kg

**Q.** Which responders at 20 mg/kg [2] does the source give for `Cc1cc(Cl)ccc1-c1nc(-c2ccccc2)n[nH]1` [Example 29, 5-(4-Chloro-2-methylphenyl)-3-phenyl-1H-1,2,4-triazole] here?
**A.** The responders at 20 mg/kg was at least 60%.

**Q.** What about the inhibition in vivo at 10 mg/kg (hamsters) of the same compound?
**A.** The inhibition in vivo at 10 mg/kg was about 60%.

**Q.** And the ED50 [1, 3]?
**A.** The ED50 was 0.14 mg/kg.

**Q.** Which ED50 [1, 3] does the source give for `C=CCOc1cccc(-c2n[nH]c(-c3ccccc3C)n2)c1` [Example 10, 3-(m-Allyloxyphenyl)-5-(o-tolyl)-1H-1,2,4-triazole] here?
**A.** Its ED50 is 0.25 mg/kg.

**Q.** How did the ED50 (hamsters) turn out when `CCc1ccccc1-c1nc(-c2ccc(OC)cc2)n[nH]1` [Example 36, 5-(o-Ethylphenyl)-3-(p-methoxyphenyl)-1H-1,2,4-triazole] was run?
**A.** The ED50 was 5 mg/kg.

**Q.** And the ED50 [1, 3]?
**A.** The ED50 was 0.15 mg/kg.

**Q.** How did the ED50 [1, 3] turn out when `CCc1ccccc1-c1nc(-c2ccc(OC)c(OC)c2)n[nH]1` [Example 37, 5-(o-Ethylphenyl)-3-(3,4-dimethoxyphenyl)-1H-1,2,4-triazole] was run?
**A.** The ED50 was 0.05 mg/kg.

**Q.** Which results are given for `COc1cccc(-c2n[nH]c(-c3ccccc3C)n2)c1` [Example 1, 3-(m-Methoxyphenyl)-5-(o-tolyl)-1H-1,2,4-triazole]?
**A.** responders at 20 mg/kg [2]: ≥ 60%; ED50 ([2]; absence of live fetuses in 50% of the animals): 1 mg/kg; inhibition in vivo at 10 mg/kg (hamsters): ~60%; ED50 (hamsters): 5 mg/kg; ED50 [1, 3]: 0.08 mg/kg

**Q.** For `CCc1ccccc1-c1nc(-c2ccc3c(c2)OCO3)n[nH]1` [Example 22, 5-(o-Ethylphenyl)-3-(3,4-methylenedioxyphenyl)-1H-1,2,4-triazole], which responders at 20 mg/kg [2] is on record?
**A.** Its responders at 20 mg/kg is at least 60%.

**Q.** What about the inhibition in vivo at 10 mg/kg (hamsters) of the same compound?
**A.** Its inhibition in vivo at 10 mg/kg is about 60%.

**Q.** What about the ED50 (hamsters) of the same compound?
**A.** The ED50 was 3 mg/kg.

**Q.** And the ED50 [1, 3]?
**A.** The ED50 was 0.03 mg/kg.

**Q.** `CCc1ccccc1-c1nc(-c2cccc(F)c2)n[nH]1` [Example 18, 5-(o-Ethylphenyl)-3-(m-fluorophenyl)-1H-1,2,4-triazole] was tested. Which responders at 20 mg/kg [2] did it give?
**A.** The responders at 20 mg/kg was at least 60%.

**Q.** What about the inhibition in vivo at 10 mg/kg (hamsters) of the same compound?
**A.** Its inhibition in vivo at 10 mg/kg is about 60%.

**Q.** And the ED50 [1, 3]?
**A.** Its ED50 is 0.4 mg/kg.

**Q.** Which results are given for `COc1ccccc1-c1n[nH]c(-c2ccccc2C)n1` [Example 4, 3-(o-Methoxyphenyl)-5-(o-tolyl)-1H-1,2,4-triazole]?
**A.** responders at 20 mg/kg [2]: ≥ 60%; inhibition in vivo at 10 mg/kg (hamsters): ~60%; ED50 [1, 3]: 0.5 mg/kg
